Series [1] relates to HCT-116 (human colorectal carcinoma). Nature of the series: MTT cytotoxicity assay, HCT-116. The series is classed as cell-based. Particulars: for IC50: Homo sapiens, HCT-116, 72 h, MTT, 72 h exposure, three independent experiments, read-out: Cytotoxic activity IC50 (95% CI) HCT-116; for Selectivity index HCT-116: ratio of cytotoxicity L929 / HCT-116. As for the experimental part:
(§1) In this study, the IC50 was obtained in micromolar concentrations, using the colourimetric MTT (3-(4,5-dimethylthiazol-2-yl)-2,5-diphenyl tetrazolium bromide)) assay, and doxorubicin was used as the positive control. […] The activity against the non-tumoural murine fibroblast cell line L929 was also evaluated in order to study the cytotoxicity behaviour of each compound and to understand their respective relative selectivity. The selectivity index was obtained using the ratio of measured cytotoxicity between the L929 cell line and each of the cancer cell lines, and the results are presented in Table 2.
(§2) The in vitro cytotoxicity activity of the compounds was evaluated by the colorimetric MTT (3-(4,5-dimethylthiazol-2-yl)-2,5-diphenyl tetrazolium bromide)) assay using the following tumor cell lines: HCT-116 (colon carcinoma), PC3 (prostate), SNB-19 (glioblastoma), K-562 (myelogenous leukaemia), HL-60 (human promyelocytic leukaemia), B16 (murine melanoma), A549 (human lung carcinoma), KG1 (human acute myeloid leukaemia), and RAJI (human Burkitt’s lymphoma), which were provided by the National Cancer Institute (Bethesda, MD, USA). The L929 cell line (mouse fibroblast L cells NCTC clone 929) employed in this study as a control cell line was obtained from the American Type Culture Collection (Manassas, VA, USA). The cell lines (Table S4) were maintained in flasks containing RPMI 1640 or DMEM medium supplemented with 10% bovive fetal sérum, 100 U/mL penicillin, and 100 μg/mL streptomycin at 37 °C and in 5% CO2 atmosphere. The compounds tested were dissolved in DMSO. Doxorubicin served as the positive control. Cell treatments were performed with three replicates and the cells were mycoplasma free. After 72 h incubation, 100 μL of MTT solution (0.5 mg/mL) was added to each well, and the cells were incubated for 3 h. The supernatant was removed and 100 μL of DMSO was added and the absorbance at 595 nm was measured using Victor Nivo Multimode plate reader (PerkinElmer, Waltham, MA, USA). The absorbances obtained were used to calculate the IC50 values by nonlinear regression employing appropriate statistical software.
(§3) The in vitro cytotoxicity activity of compounds was evaluated by the colorimetric MTT (3-(4,5-dimethylthiazol-2-yl)-2,5-diphenyl tetrazolium bromide)) assay using tumor cell lines: HCT-116 (colon carcinoma), PC3 (prostate), SNB-19 (glioblastoma), K-562 (myelogenous leukaemia), HL-60 (human promyelocytic leukaemia), B16 (murine melanoma), A549 (human lung carcinoma), KG1 (human acute myeloid leukaemia) and RAJI (human Burkitt's lymphoma), which were provided by the National Cancer Institute (Bethesda, MD, USA). The L929 cell line (mouse fibroblast L cells NCTC clone 929) employed in this study as a control cell line was obtained from the American Type Culture […]
(§4) Collection (Manassas, VA, USA). Cell lines (Table 01) were maintained in flasks containing RPMI 1640 or DMEM medium supplemented with 10% bovive fetal sérum, 100 U/mL penicillin, and 100 μg/mL streptomycin at 37 °C and 5% CO2 atmosphere.
(§5) Compounds tested were dissolved in DMSO. Doxorubicin served as positive control. Cell treatments were performed with three replicates and cells were mycoplasma-free. After 72 h incubation, 100 μL of MTT solution (0.5 mg/mL) was added to each well, and cells were incubated for 3 h. The supernatant was removed and 100 μL of DMSO was added and the absorbance at 595 nm was measured using Victor Nivo Multimode plate reader

Series [2] deals with PC3 (human prostate adenocarcinoma). Nature of the series: MTT cytotoxicity assay, PC3. Format: cell-based. The conditions noted are these: for IC50: Homo sapiens, MTT, 72 h exposure, three independent experiments, read-out: Cytotoxic activity IC50 (95% CI) PC3; for Selectivity index PC3: ratio of cytotoxicity L929 / PC3. As for the experimental part:
as §1, §2, §3, §4, §5
On the technique in general: Formazan colour is commonly taken as a measure of viable cells.

In series [3] the test system is SNB-19 (human astrocytoma). As to the kind of experiment: MTT cytotoxicity assay, SNB-19. Particulars: for IC50: Homo sapiens, SNB-19, MTT, 72 h exposure, three independent experiments, read-out: Cytotoxic activity IC50 (95% CI) SNB-19; for Selectivity index SNB-19: ratio of cytotoxicity L929 / SNB-19. Format: cell-based. Here is the method: as §1, §2, §3, §4, §5

In series [4] the test system is K-562 (human chronic myeloid leukaemia). Nature of the series: MTT cytotoxicity assay, K-562. The conditions noted are these: for IC50: Homo sapiens, K562, MTT, 72 h exposure, three independent experiments, read-out: Cytotoxic activity IC50 (95% CI) K-562; for Selectivity index K-562: ratio of cytotoxicity L929 / K-562. Format: cell-based. Here is the method:
as §1, §2, §3, §4, §5

Series [5] concerns HL60 (human pro-myelocytic leukaemia). Nature of the series: MTT cytotoxicity assay, HL60. Particulars: for IC50: Homo sapiens, HL-60, 72 h, MTT, 72 h exposure, three independent experiments, read-out: Cytotoxic activity IC50 (95% CI) HL60; for Selectivity index HL60: ratio of cytotoxicity L929 / HL60. The series is classed as cell-based. Here is the method: as §1, §2, §3, §4, §5

The subject of a further series is B16 (murine melanoma). Nature of the series: MTT cytotoxicity assay, B16. The conditions noted are these: for IC50: Mus musculus, MTT, 72 h exposure, three independent experiments, read-out: Cytotoxic activity IC50 (95% CI) B16; for Selectivity index B16: ratio of cytotoxicity L929 / B16. Format: cell-based. As for the experimental part:
as §1, §2, §3, §4, §5

For series [6], the system named is A549 (human lung carcinoma). As to the kind of experiment: MTT cytotoxicity assay, A549. Format: cell-based. The conditions noted are these: for IC50: Homo sapiens, A549, MTT, 72 h exposure, three independent experiments, read-out: Cytotoxic activity IC50 (95% CI) A549; for Selectivity index A549: ratio of cytotoxicity L929 / A549. As for the experimental part: as §1, §2, §3, §4, §5

Series [7] deals with KG1 (human acute myeloid leukaemia). As to the kind of experiment: MTT cytotoxicity assay, KG1. Format: cell-based. Particulars: for IC50: Homo sapiens, MTT, 72 h exposure, three independent experiments, read-out: Cytotoxic activity IC50 (95% CI) KG1; for Selectivity index KG1: ratio of cytotoxicity L929 / KG1. Here is the method:
as §1, §2, §3, §4, §5

Series [8] concerns RAJI (human Burkitt’s lymphoma). Nature of the series: MTT cytotoxicity assay, RAJI. Format: cell-based. The conditions noted are these: for IC50: Homo sapiens, Raji, 72 h, MTT, 72 h exposure, three independent experiments, read-out: Cytotoxic activity IC50 (95% CI) RAJI; for Selectivity index RAJI: ratio of cytotoxicity L929 / RAJI. Here is the method: as §1, §2, §3, §4, §5

The nature of series [9]: MTT cytotoxicity assay, L929 control line. The series is classed as cell-based, mouse. The conditions noted are these: mouse, L929 fibroblast cells (non-tumoral control line), 72 h exposure, read-out: Cytotoxic activity IC50 (95% CI) L929. As for the experimental part: as §1, §2, §3, §4, §5

In the case of `O=C1C(=O)c2ccccc2C2=C1CC(Cn1cc(CNC3=CC(=O)c4c(O)cccc4C3=O)nn1)O2` (centres unmarked) [Compound 20b, 2-((4-(((5-hydroxy-1,4-dioxo-1,4-dihydronaphthalen-2-yl)amino)methyl)-1H-1,2,3-triazol-1-yl)methyl)-2,3-dihydronaphtho[1,2-b]furan-4,5-dione], in series [1], the half-inhibitory concentration (IC50) (commonly the concentration at which inhibition is half-maximal) was determined as 7.22 µM and the “Selectivity index HCT-116” value is reported as 3.8. In series [2], the IC50 came out at 10.2 µM and the “Selectivity index PC3” value stood at 2.7. Further, in series [3], the IC50 was found to be 9.47 µM and the “Selectivity index SNB-19” value stood at 2.9. Further, in series [4], the IC50 was 12.8 µM and the “Selectivity index K-562” value was 2.2. In [5], the concentration for half-maximal inhibition (IC50) stood at 5 µM and the “Selectivity index HL60” value came to 5.5. In addition, in the series with B16 (murine melanoma), the IC50 is 4.52 µM and the “Selectivity index B16” value was 6.1. In addition, in series [6], the IC50 came to 18.9 µM and the “Selectivity index A549” value is 1.5. Besides, in series [7], the half-maximal inhibitory concentration (IC50) was 23.3 µM and the “Selectivity index KG1” value was 1.2. In addition, in [8], the IC50 was 2.49 µM and the “Selectivity index RAJI” value is 11.1. The IC50 at 72 h in series [9] was 27.6 µM.
On to `COc1cccc2c1C(=O)C(NCc1cn(CC3CC4=C(OC3(C)C)c3ccccc3C(=O)C4=O)nn1)=CC2=O` (centres unmarked) [Compound 21c, 3-((4-(((8-methoxy-1,4-dioxo-1,4-dihydronaphthalen-2-yl)amino)methyl)-1H-1,2,3-triazol-1-yl)methyl)-2,2-dimethyl-3,4-dihydro-2H-benzo[h]chromene-5,6-dione], for which, in series [1], the IC50 was determined as 4.85 µM and the “Selectivity index HCT-116” value is recorded as 1.2. For the same molecule, in series [2], the IC50 was determined as 5.09 µM and the “Selectivity index PC3” value is 1.1. In [3], the IC50 amounted to 4.92 µM and the “Selectivity index SNB-19” value is 1.1. In series [4], the IC50 amounted to 5.3 µM and the “Selectivity index K-562” value is on record as 1.1. Besides, in series [5], the IC50 is 2.28 µM and the “Selectivity index HL60” value is given as 2.5. In the series on B16 (murine melanoma), the IC50 was determined as 4.57 µM and the “Selectivity index B16” value is on record as 1.2. Besides, in series [6], the IC50 is 4.78 µM and the “Selectivity index A549” value is on record as 1.2. In [7], the IC50 worked out at 1.32 µM and the “Selectivity index KG1” value is given as 4.2. In [8], the IC50 is 1.22 µM and the “Selectivity index RAJI” value was 4.6. The IC50 at 72 h in series [9] is 5.6 µM.
With `O=C1C(=O)c2ccccc2C2=C1CC(Cn1cc(CNC3=CC(=O)c4c(I)cccc4C3=O)nn1)O2` (centres unmarked) [Compound 20a, 2-((4-(((5-iodo-1,4-dioxo-1,4-dihydronaphthalen-2-yl)amino)methyl)-1H-1,2,3-triazol-1-yl)methyl)-2,3-dihydronaphtho[1,2-b]furan-4,5-dione], in [1], the IC50 amounted to 5.47 µM and the “Selectivity index HCT-116” value was 1.0. In series [2], the IC50 turned out to be 9.79 µM and the “Selectivity index PC3” value was 0.6. In series [3], the IC50 turned out to be 8.5 µM and the “Selectivity index SNB-19” value was 0.7. In addition, in series [4], the IC50 is 5.56 µM and the “Selectivity index K-562” value was found to be 1.0. In addition, in [5], the IC50 stood at 2.84 µM and the “Selectivity index HL60” value was found to be 2.0. In the series on B16 (murine melanoma), the IC50 turned out to be 4.19 µM and the “Selectivity index B16” value came to 1.3. In addition, in [6], the IC50 came to 15.3 µM and the “Selectivity index A549” value was 0.4. In series [7], the IC50 was 25.3 µM and the “Selectivity index KG1” value worked out at 0.2. In addition, in series [8], the IC50 was determined as 2.8 µM and the “Selectivity index RAJI” value is reported as 2.0. Further, in series [9], the IC50 at 72 h came out at 5.59 µM.
In the case of `CC1(C)OC2=C(C(=O)C(=O)c3ccccc32)C1n1cc(CNC2=CC(=O)c3c(I)cccc3C2=O)nn1` (centres unmarked) [Compound 19a, 3-(4-(((5-iodo-1,4-dioxo-1,4-dihydronaphthalen-2-yl)amino)methyl)-1H-1,2,3-triazol-1-yl)-2,2-dimethyl-2,3-dihydronaphtho[1,2-b]furan-4,5-dione], in series [1], the IC50 was 1 µM and the “Selectivity index HCT-116” value came out at 1.2. For the same molecule, in series [2], the IC50 turned out to be 3.65 µM and the “Selectivity index PC3” value was 0.3. In series [3], the IC50 is 0.99 µM and the “Selectivity index SNB-19” value was found to be 1.2. Also, in [4], the IC50 was 1.21 µM and the “Selectivity index K-562” value came out at 1.0. In [5], the IC50 was 0.44 µM and the “Selectivity index HL60” value was found to be 2.8. Also, in the series on B16 (murine melanoma), the 50% inhibitory concentration (IC50) was found to be 1.87 µM and the “Selectivity index B16” value was found to be 0.6. In series [6], the IC50 stood at 2.56 µM and the “Selectivity index A549” value came to 0.5. Also, in [7], the IC50 came out at 1.37 µM and the “Selectivity index KG1” value was 0.9. In [8], the concentration for half-maximal inhibition (IC50) worked out at 2.02 µM and the “Selectivity index RAJI” value came out at 0.6. Besides, the IC50 at 72 h in series [9] was 1.21 µM.
For the molecule `CC1(C)OC2=C(C(=O)C(=O)c3ccccc32)C1N=[N+]=[N-]` (centres unmarked) [Compound 4, 3-azido-2,2-dimethyl-2,3-dihydronaphtho[1,2-b]furan-4,5-dione], in series [1], the IC50 stood at 1.96 µM and the “Selectivity index HCT-116” value is listed as 1.4. Further, in series [2], the IC50 was 5.93 µM and the “Selectivity index PC3” value worked out at 0.5. Further, in series [3], the IC50 came to 2.09 µM and the “Selectivity index SNB-19” value worked out at 1.3. Besides, in series [4], the IC50 turned out to be 1.42 µM and the “Selectivity index K-562” value was 1.9. In series [5], the IC50 amounted to 1.08 µM and the “Selectivity index HL60” value is listed as 2.5. Besides, in the series on B16 (murine melanoma), the IC50 was found to be 1.77 µM and the “Selectivity index B16” value is 1.5. In series [6], the IC50 stood at 3.65 µM and the “Selectivity index A549” value was 0.8. In addition, in series [7], the IC50 is 5.98 µM and the “Selectivity index KG1” value was 0.5. In addition, in series [8], the IC50 came out at 2.46 µM and the “Selectivity index RAJI” value is 1.1. Moreover, the IC50 at 72 h in series [9] was 2.74 µM.

For the origin of these results see PMC10005332, “It Takes Two to Tango, Part II: Synthesis of A-Ring Functionalised Quinones Containing Two Redox-Active Centres with Antitumour Activities” (Molecules, 2023).
